Assay results published in the supplement of paper PMC10307832.

Assays:
Assay in all cases: relative viability (nuclei count vs DMSO), 5 days (fraction); higher = more cells survive
Kobe2602 + AZD7762 = compound: C1=CC(=CC=C1NC(=S)NNC2=C(C=C(C=C2[N+](=O)[O-])C(F)(F)F)[N+](=O)[O-])F [Kobe2602] + NC(=O)Nc1cc(-c2cccc(F)c2)sc1C(=O)N[C@H]1CCCNC1 [AZD7762] (partner 0.2 µM)
Outline: (§1)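 Each reported value is a median over duplicate plates. It expresses relative viability: treated-well nuclei count divided by vehicle-well nuclei count. Lung cancer cell lines in 1536-well plates were dosed by pin tool a day after seeding, alone with one drug or with a fixed anchor-drug dose plus five library-drug doses (not always all listed) in √10 steps, and nuclei were counted after 5 days.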

Kobe2602 + Vorinostat = compound: C1=CC(=CC=C1NC(=S)NNC2=C(C=C(C=C2[N+](=O)[O-])C(F)(F)F)[N+](=O)[O-])F [Kobe2602] + O=C(CCCCCCC(=O)Nc1ccccc1)NO [Vorinostat] (partner 1 µM)
Outline: as §1

Kobe2602 + Olaparib = compound: C1=CC(=CC=C1NC(=S)NNC2=C(C=C(C=C2[N+](=O)[O-])C(F)(F)F)[N+](=O)[O-])F [Kobe2602] + O=C(c1cc(Cc2n[nH]c(=O)c3ccccc23)ccc1F)N1CCN(C(=O)C2CC2)CC1 [Olaparib] (partner 8 µM)
Outline: as §1

[1] = compound: COc1cc2nccc(Oc3ccc(NC(=O)C4(C(=O)Nc5ccc(F)cc5)CC4)cc3)c2cc1OC [Cabozantinib] + O=C(CCCCCCC(=O)Nc1ccccc1)NO [Vorinostat] (partner 1 µM)
Outline: as §1

Cell Line	relative viability (Kobe2602 + AZD7762; first compound 0.2 µM)	relative viability (Kobe2602 + AZD7762; first compound 0.6325 µM)	relative viability (Kobe2602 + AZD7762; first compound 2 µM)	relative viability (Kobe2602 + AZD7762; first compound 6.325 µM)	relative viability (Kobe2602 + AZD7762; first compound 20 µM)	relative viability (Kobe2602 + Vorinostat; first compound 0.2 µM)	relative viability (Kobe2602 + Vorinostat; first compound 0.6325 µM)	relative viability (Kobe2602 + Vorinostat; first compound 2 µM)	relative viability (Kobe2602 + Vorinostat; first compound 6.325 µM)	relative viability (Kobe2602 + Vorinostat; first compound 20 µM)	relative viability (Kobe2602 + Olaparib; first compound 0.2 µM)	relative viability (Kobe2602 + Olaparib; first compound 0.6325 µM)	relative viability (Kobe2602 + Olaparib; first compound 2 µM)	relative viability (Kobe2602 + Olaparib; first compound 6.325 µM)	relative viability (Kobe2602 + Olaparib; first compound 20 µM)	relative viability ([1]; first compound 0.02 µM)	relative viability ([1]; first compound 0.06325 µM)	relative viability ([1]; first compound 0.2 µM)	relative viability ([1]; first compound 0.6325 µM)	relative viability ([1]; first compound 2 µM)
NCI-H1944	0.561	0.553	0.704	0.496	0.585	0.532	0.64	0.538	0.531	0.629	0.475	0.385	0.403	0.432	0.403	0.615	0.617	0.527	0.582	0.637
HOP-62	0.635	0.529	0.667	0.447	0.537	0.707	0.717	0.559	0.763	0.688	0.512	0.523	0.476	0.316	0.472	0.661	0.764	0.669	0.603	0.555
HCC-366	0.22	0.269	0.312	0.183	0.421	0.311	0.357	0.329	0.273	0.296	0.368	0.345	0.32	0.352	0.365	0.309	0.381	0.374	0.378	0.429
NCI-H3122	0.984	0.963	0.935	1.09	1.04	0.986	0.701	0.979	0.855	1.06	0.551	0.602	0.621	0.56	0.619	0.992	1	1.07	1.11	1.02
NCI-H1648	0.741	0.656	0.586	0.624	0.66	0.464	0.441	0.351	0.334	0.338	0.62	0.929	0.493	0.772	0.872	0.425	0.589		0.55	0.408
NCI-H1355	0.744	0.7	0.744	0.676	0.815	0.589	0.687	0.577	0.588	0.622	0.742	0.747	0.712	0.727	0.601	0.659	0.754	0.6	0.635	0.625
NCI-H2170	0.9	0.875	0.869	0.823	0.886	0.765	0.813	0.732	0.717	0.84	0.561	0.574	0.53	0.597	0.625	0.818	0.821	0.704	0.847	0.914
NCI-H1734	0.554	0.656	0.586	0.549	0.503	0.863	0.912	0.844	0.841	0.8	0.601	0.626	0.635	0.642	0.665	0.703	1.01	0.847	0.886	0.792
